This note sets out measurements from PubChem BioAssay (NCI).

Test systems include UO-31 renal; COLO 205 colon; SR leukemia; LOX IMVI melanoma; EKVX NSCLC; SF-268 CNS; KM12 colon; SNB-19 CNS; MDA-MB-231 breast; MDA-MB-435.
What all share (assay): growth of human tumour cells (NCI), 48 h

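A five-concentration, 48-hour dose response in 96-well plates underlies each endpoint, interpolated linearly between surrounding concentrations. The concentration for 50% growth inhibition is given as GI50. Definition used: TGI = concentration required for complete inhibition of growth.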

In the case of `O=C1OC2C(O)COC2(OCc2c[nH]c3ccccc23)C1O` (stereo unspecified) (tested in a mixture with another compound), the TGI with UO-31 renal, in the assay with COLO 205 colon, with SR leukemia, in the assay with LOX IMVI melanoma, in the assay on EKVX NSCLC and in the assay on SF-268 CNS was more than 100 µM in each case. Moreover, the TGI in the assay with KM12 colon and in the assay with SNB-19 CNS was more than 100 µM throughout.
Turning to `COC(=O)c1c(OC(=O)c2ccccc2)noc1CC(=O)OC1C=CCCC1` (stereo unspecified), the TGI with UO-31 renal, in the assay with COLO 205 colon, in the assay on SR leukemia, in the assay on SF-268 CNS, in the assay with KM12 colon and with SNB-19 CNS was more than 100 µM in each case.
As to `Nc1nc(N)c2nn(-c3ccc(C(=O)O)cc3)nc2n1`, the TGI in the assay with UO-31 renal, with MDA-MB-231 breast, with COLO 205 colon, in the assay on LOX IMVI melanoma, in the assay with EKVX NSCLC and in the assay with MDA-MB-435 was more than 100 µM in each case. The TGI in the assay with SF-268 CNS, with KM12 colon and in the assay with SNB-19 CNS was more than 100 µM in each case.
Regarding `O=C(Nc1cccc(Cl)c1)c1cc2cc(N=Nc3ccc(Br)cc3)ccc2oc1=O`, the TGI in the assay with UO-31 renal is more than 100 µM; in the assay with COLO 205 colon, more than 100 µM; in the assay on LOX IMVI melanoma, 45.1 µM; in the assay on EKVX NSCLC, more than 100 µM; in the assay on SF-268 CNS it was more than 100 µM; in the assay with KM12 colon it was 76 µM. The molecule also displayed a TGI in the assay on SNB-19 CNS of more than 100 µM.
Turning to `COCC(O)CN1C(N)=NC(O)C1O` (stereo unspecified), the TGI in the assay on UO-31 renal, with COLO 205 colon, in the assay with SR leukemia, with LOX IMVI melanoma, in the assay on EKVX NSCLC and in the assay with SF-268 CNS was more than 100 µM each time. The TGI in the assay with KM12 colon and with SNB-19 CNS was more than 100 µM throughout.
Take `COc1ccc2nccc(C3OC(=O)N4CCC(=O)CC34)c2c1` (stereo unspecified): the TGI in the assay on UO-31 renal, in the assay with COLO 205 colon, in the assay on SR leukemia, in the assay with LOX IMVI melanoma, in the assay with EKVX NSCLC and with SF-268 CNS was more than 100 µM in each case. For the same molecule, the TGI with KM12 colon and in the assay with SNB-19 CNS was more than 100 µM each time.
`CCCCCC1C2C(=O)NC(=O)C1C(=O)NC2=O` (stereo unspecified): the TGI with UO-31 renal, in the assay on COLO 205 colon, in the assay with LOX IMVI melanoma, in the assay on EKVX NSCLC, in the assay with SF-268 CNS and in the assay on KM12 colon was more than 100 µM each time. Also, the TGI in the assay with SNB-19 CNS is more than 100 µM.
For `O=[N+]([O-])c1ccc(-c2ccc(C3=Nn4c(nnc4-c4ccc(Cl)cc4)SC3)o2)cc1`, the TGI in the assay with UO-31 renal, in the assay on COLO 205 colon, in the assay with SR leukemia, with LOX IMVI melanoma, with EKVX NSCLC and with SF-268 CNS was more than 100 µM in each case. Further, the TGI in the assay with KM12 colon is more than 100 µM; with SNB-19 CNS, more than 76.8 µM.
Turning to `O=c1c2ccccc2nc(-c2ccccc2Cl)n1NC1OC(CO)C(O)C(O)C1O` (stereo unspecified), the TGI with UO-31 renal, in the assay with COLO 205 colon, with EKVX NSCLC, in the assay on SF-268 CNS, in the assay with KM12 colon and in the assay on SNB-19 CNS was more than 100 µM in each case.
`CC(=O)NC1C(=O)CC(c2ccccc2)N(C)C1c1ccccc1` (stereo unspecified): the TGI in the assay on UO-31 renal, in the assay with COLO 205 colon, with SR leukemia, in the assay on LOX IMVI melanoma, in the assay with EKVX NSCLC and in the assay on SF-268 CNS was more than 100 µM throughout. Further, the TGI in the assay on KM12 colon and with SNB-19 CNS was more than 100 µM throughout.
Take `CC/C(=C(\c1ccccc1)c1ccc(OCC[N+](C)(C)C)cc1)c1ccccc1`: the TGI in the assay on UO-31 renal was 38.7 µM; in the assay with COLO 205 colon it was 20.4 µM; in the assay with LOX IMVI melanoma, 27.7 µM; in the assay on EKVX NSCLC it was 33 µM; in the assay on SF-268 CNS, 32.4 µM; in the assay with KM12 colon, 29.8 µM. The same molecule had a TGI with SNB-19 CNS of 37.1 µM.
On to `N#CC1=C(N)Oc2c(ccc3ccccc23)C1c1ccccc1Cl` (stereo unspecified), for which the GI50 with UO-31 renal was 0.282 µM; with MDA-MB-231 breast, 0.571 µM; in the assay with COLO 205 colon it was 0.362 µM; with SR leukemia, 0.107 µM; with LOX IMVI melanoma, 0.479 µM; in the assay on EKVX NSCLC, 0.652 µM. The GI50 in the assay with SF-268 CNS is 1.11 µM; in the assay with KM12 colon, 0.227 µM; with SNB-19 CNS, 0.59 µM. Besides, the TGI in the assay with UO-31 renal worked out at 24.8 µM; in the assay with MDA-MB-231 breast it was 14.6 µM; with COLO 205 colon, 12.9 µM; in the assay with SR leukemia, 22.1 µM; in the assay with LOX IMVI melanoma it was 12.1 µM; in the assay on EKVX NSCLC it was 22.2 µM. The TGI was found to be 15.5 µM with SF-268 CNS, 7.9 µM in the assay with KM12 colon and 23.1 µM in the assay with SNB-19 CNS.
Turning to `Cc1ccc(S(=O)(=O)c2ccccn2)cc1`, the TGI with UO-31 renal, in the assay with COLO 205 colon, in the assay with LOX IMVI melanoma, with EKVX NSCLC, in the assay with SF-268 CNS and with KM12 colon was more than 100 µM each time. In the assay on SNB-19 CNS, the TGI was more than 100 µM.
For `Cc1nc2c(=O)n(C)c(=O)nc-2n(-c2ccc(Cl)cc2)c1C`, the TGI in the assay on UO-31 renal, in the assay with COLO 205 colon, in the assay with EKVX NSCLC, in the assay on SF-268 CNS, in the assay on KM12 colon and in the assay with SNB-19 CNS was more than 100 µM each time.
With `S=C(N/N=C/c1ccccc1)NC1CC(c2ccccc2)Oc2ccccc21` (stereo unspecified), the TGI in the assay on UO-31 renal, in the assay with COLO 205 colon, in the assay with SR leukemia, with LOX IMVI melanoma, in the assay with EKVX NSCLC and in the assay with SF-268 CNS was more than 100 µM each time. Moreover, the TGI in the assay on KM12 colon and with SNB-19 CNS was more than 100 µM in each case.
